# Measurements from patent EP0587374A2, “Sulfated sterol glycosides and their use against viral infections” (VIROSTAT (NA) NV, priority 1992, dated 1994).
# Values joined by “and” are separate entries in the source; they are usually repeats but may differ in a detail not shown here. Identical values can stand only once. Like-named read-outs stand apart in the source and are kept apart here.
# Details: for Elimination half-life: open two-compartment model
# Source text: Two test animals were used. […] Anaesthesia was maintained with halothane. […] Twenty-five blood samples (1.5 mℓ each) were drawn from each test animal at intervals appropriate to the pharmacokinetic modelling. […]
compound,measurement,setting,value
"CC[C@H](CC[C@@H](C)[C@H]1CC[C@H]2[C@@H]3CC=C4C[C@@H](O[C@@H]5O[C@H](COS(=O)(=O)O)[C@@H](OS(=O)(=O)O)[C@H](OS(=O)(=O)O)[C@H]5OS(=O)(=O)O)CC[C@]4(C)[C@H]3CC[C@]12C)C(C)C [BSSG-(SO₄⁻)₄, β-Sitosteryl β-D-glucoside tetra-sulphate]",Elimination half-life,High Dose (750 mg) i.v.,22 h
same,Peak plasma concentration,"High Dose (750 mg), i.v. infusion 30 minutes, total dose 55.6 mg/kg",364 µg/mL
same,Elimination half-life,Low Dose (120 mg) i.v.,12 h
same,Peak plasma concentration,"Low Dose (120 mg), i.v. infusion 15 minutes, total dose 7.14 mg/kg",102 µg/mL
same,haemolysis in the blood samples,baboon receiving the lower dose (120 mg i.v.),no evidence of haemolysis
same,haemolysis in the blood samples,high-dose test animal (750 mg i.v.),macroscopic evidence of haemolysis
same,plasma elimination half-life,"i.v., range over the two doses (120 mg, 750 mg)",12 - 20 hours and 12 and 22 hours
same,haemodynamic effects,"intravenous administration, very high plasma concentrations",did not appear to be any deleterious haemodynamic effects
